Assay results: PubChem BioAssay AID602311 (The Scripps Research Institute Molecular Screening Center, 2012)
Activity calls are given as the source filed them. How the calls were made is not given here.

Legend:
Assay in all cases: serine hydrolase off-target inhibition in mouse brain, late-stage follow-up, selectivity assay for DAGLb inhibitor project, biochemical, gel-based competitive ABPP, mouse brain membrane, set 1 (AID 602311)
MAGL = details: gel-based competitive ABPP fluorescence, at 10 µM, hits give high values
KIAA1363 = details: gel-based competitive ABPP fluorescence, at 10 µM, hits give high values
FAAH = details: gel-based competitive ABPP fluorescence, at 10 µM, hits give high values
[1] = biological target: Acyl-protein thioesterase 1 (Mus musculus) (UniProt P97823); details: gel-based competitive ABPP fluorescence, LYPLA1, at 10 µM, hits give high values
Sequence of Acyl-protein thioesterase 1 (Mus musculus) (P97823 whole entry, looked up): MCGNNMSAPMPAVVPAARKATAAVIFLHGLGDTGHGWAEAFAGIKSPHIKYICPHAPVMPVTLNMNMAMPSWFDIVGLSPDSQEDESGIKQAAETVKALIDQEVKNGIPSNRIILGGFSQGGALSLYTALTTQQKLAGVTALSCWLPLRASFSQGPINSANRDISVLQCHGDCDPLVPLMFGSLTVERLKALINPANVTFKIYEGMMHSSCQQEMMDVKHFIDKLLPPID

APEH = details: gel-based competitive ABPP fluorescence, at 10 µM, hits give high values
LYPLA2 = details: gel-based competitive ABPP fluorescence, at 10 µM, hits give high values
[2] = biological target: Monoacylglycerol lipase ABHD6 (Mus musculus) (UniProt Q8R2Y0); details: gel-based competitive ABPP fluorescence, at 10 µM, hits give high values
Sequence of Monoacylglycerol lipase ABHD6 (Mus musculus) (Q8R2Y0 whole entry, looked up): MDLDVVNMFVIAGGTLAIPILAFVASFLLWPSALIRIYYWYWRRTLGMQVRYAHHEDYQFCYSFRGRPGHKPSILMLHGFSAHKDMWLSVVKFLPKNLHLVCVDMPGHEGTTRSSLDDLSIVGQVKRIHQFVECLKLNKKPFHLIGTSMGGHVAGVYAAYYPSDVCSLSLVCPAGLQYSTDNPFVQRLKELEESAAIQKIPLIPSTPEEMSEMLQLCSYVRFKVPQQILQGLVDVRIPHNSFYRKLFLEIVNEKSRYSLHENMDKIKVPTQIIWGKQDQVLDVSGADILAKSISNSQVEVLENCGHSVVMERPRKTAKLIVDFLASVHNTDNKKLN

ABHD12 = details: gel-based competitive ABPP fluorescence, at 10 µM, hits give high values

Compound | inhibition (MAGL) | inhibition (KIAA1363) | inhibition (FAAH) | inhibition [1] | inhibition (APEH) | inhibition (LYPLA2) | inhibition [2] [%] | inhibition (ABHD12)
O=C(N1CCCCC1Cc1ccccc1)n1cc(-c2ccc(-c3ccoc3)cc2)nn1 (stereo not drawn) | 10% (inactive) | 0% (inactive) | 40% (inactive) | 0% (inactive) | 0% (inactive) | 0% (inactive) | 98 | 0% (inactive)
O=C(N1CCCCC1Cc1ccccc1)n1cc(-c2ccc(-c3ccccc3C(F)(F)F)cc2)nn1 (stereo not drawn) | 1% (inactive) | 0% (inactive) | 40% (inactive) | 0% (inactive) | 0% (inactive) | 0% (inactive) | 80 | 0% (inactive)
O=C(N1CCCCC1Cc1ccccc1)n1cc(-c2cc(F)cc(F)c2)nn1 (stereo not drawn) | 95% | 85% | 98% | 50% | 0% (inactive) | 50% | 90 | 0% (inactive)
Cc1ccccc1-c1ccc(-c2cn(C(=O)N3CCCCC3Cc3ccccc3)nn2)cc1 (stereo not drawn) | 0% (inactive) | 0% (inactive) | 30% (inactive) | 0% (inactive) | 0% (inactive) | 0% (inactive) | 98 | 0% (inactive)
O=C(N1CCCCC1Cc1ccccc1)n1cc(-c2ccc(Br)cc2)nn1 (stereo not drawn) | 90% | 0% (inactive) | 90% | 0% (inactive) | 0% (inactive) | 0% (inactive) | 90 | 0% (inactive)
O=C(N(CCc1ccccc1)Cc1ccco1)n1cc(-c2ccc(OC(F)(F)F)cc2)nn1 | 10% (inactive) | 55% | 95% | 0% (inactive) | 0% (inactive) | 0% (inactive) | 95 | 0% (inactive)
CC(C)(C)OC(=O)NCCCCCN(CCc1ccccc1)C(=O)n1cc(-c2ccc(OC(F)(F)F)cc2)nn1 | 10% (inactive) | 0% (inactive) | 0% (inactive) | 0% (inactive) | 0% (inactive) | 0% (inactive) | 95 | 0% (inactive)
O=C(N1CCCCC1Cc1ccccc1)n1cc(-c2ccc(-c3ccc(C(F)(F)F)cc3)cc2)nn1 (stereo not drawn) | 10% (inactive) | 60% | 55% | 0% (inactive) | 0% (inactive) | 0% (inactive) | 90 | 0% (inactive)
O=C(N1CCCCC1c1ccccc1)n1cc(C(O)(c2ccccc2)c2ccccc2)nn1 (stereo not drawn) | 0% (inactive) | 100% | 55% | 100% | 95% | 100% | 100 | 0% (inactive)
O=C(N1CCCCC1Cc1ccccc1)n1cc(-c2ccc(-c3ccccc3CO)cc2)nn1 (stereo not drawn) | 95% | 0% (inactive) | 55% | 20% (inactive) | 0% (inactive) | 20% (inactive) | 95 | 10% (inactive)
O=C(N1CCCCC1Cc1ccccc1)n1cc(-c2ccc(-c3cccc(CO)c3)cc2)nn1 (stereo not drawn) | 10% (inactive) | 0% (inactive) | 40% (inactive) | 0% (inactive) | 0% (inactive) | 0% (inactive) | 90 | 0% (inactive)
O=C(N1CCCCC1Cc1ccccc1)n1cc(-c2ccc(-c3ccccc3Cl)cc2)nn1 (stereo not drawn) | 10% (inactive) | 20% (inactive) | 30% (inactive) | 0% (inactive) | 0% (inactive) | 0% (inactive) | 95 | 0% (inactive)
O=C(N1CCCCC1Cc1ccccc1)n1cc(-c2ccc(OC(F)(F)F)cc2)nn1 (stereo not drawn) | 40% (inactive) | 40% (inactive) | 65% | 0% (inactive) | 0% (inactive) | 0% (inactive) | 90 | 0% (inactive)
O=C(N1CCCCC1Cc1ccccc1)n1cc(-c2ccc(-c3cccc(C(F)(F)F)c3)cc2)nn1 (stereo not drawn) | 1% (inactive) | 10% (inactive) | 65% | 0% (inactive) | 0% (inactive) | 0% (inactive) | 85 | 0% (inactive)
O=C(N1CCCCC1Cc1ccccc1)n1cc(-c2ccc(-c3ccc4c(c3)OCO4)cc2)nn1 (stereo not drawn) | 0% (inactive) | 0% (inactive) | 50% | 0% (inactive) | 0% (inactive) | 0% (inactive) | 90 | 0% (inactive)
O=C(N1CCCCC1Cc1ccccc1)n1ncc(C(O)(c2ccccc2)c2ccccc2)n1 (stereo not drawn) | 0% (inactive) | 0% (inactive) | 0% (inactive) | 0% (inactive) | 0% (inactive) | 0% (inactive) | 85 | 0% (inactive)
O=C(N1CCCCC1Cc1ccccc1)n1cc(-c2ccccc2-c2ccccc2)nn1 (stereo not drawn) | 75% | 0% (inactive) | 98% | 10% (inactive) | 0% (inactive) | 10% (inactive) | 80 | 0% (inactive)
O=C(N1CCCCC1Cc1ccccc1)n1cc(-c2cccc(-c3ccccc3)c2)nn1 (stereo not drawn) | 80% | 0% (inactive) | 65% | 0% (inactive) | 0% (inactive) | 0% (inactive) | 85 | 0% (inactive)
O=C(N1CCCCC1Cc1ccccc1)n1cc(-c2ccc(-c3ccccc3)cc2)nn1 (stereo not drawn) | 0% (inactive) | 0% (inactive) | 0% (inactive) | 0% (inactive) | 0% (inactive) | 0% (inactive) | 95 | 0% (inactive)
COc1ccccc1-c1ccc(-c2cn(C(=O)N3CCCCC3Cc3ccccc3)nn2)cc1 (stereo not drawn) | 70% | 0% (inactive) | 10% (inactive) | 0% (inactive) | 0% (inactive) | 0% (inactive) | 85 | 0% (inactive)
O=C(c1ccc(-c2ccc(-c3cn(C(=O)N4CCCCC4Cc4ccccc4)nn3)cc2)cc1)N1CCCCC1 (stereo not drawn) | 0% (inactive) | 10% (inactive) | 10% (inactive) | 0% (inactive) | 0% (inactive) | 0% (inactive) | 85 | 0% (inactive)
O=C(N1CCCCC1Cc1ccccc1)n1cc(-c2ccc(-c3ccccc3OC(F)(F)F)cc2)nn1 (stereo not drawn) | 60% | 25% (inactive) | 45% (inactive) | 0% (inactive) | 0% (inactive) | 0% (inactive) | 85 | 0% (inactive)
O=C(N1CCCCC1Cc1ccccc1)n1ncc(-c2ccc(OC(F)(F)F)cc2)n1 (stereo not drawn) | 0% (inactive) | 90% | 98% | 0% (inactive) | 0% (inactive) | 0% (inactive) | 85 | 0% (inactive)
CC(C)CN(CCc1ccccc1)C(=O)n1cc(-c2ccc(OC(F)(F)F)cc2)nn1 | 0% (inactive) | 0% (inactive) | 0% (inactive) | 0% (inactive) | 0% (inactive) | 0% (inactive) | 90 | 0% (inactive)
O=C(N1CCCCC1Cc1ccccc1)n1cc(-c2ccc(-c3ccc(OC(F)(F)F)cc3)cc2)nn1 (stereo not drawn) | 0% (inactive) | 55% | 45% (inactive) | 0% (inactive) | 0% (inactive) | 0% (inactive) | 90 | 0% (inactive)
O=C(c1ccc(-c2cn(C(=O)N3CCCCC3Cc3ccccc3)nn2)cc1)N1CCCCC1 (stereo not drawn) | 0% (inactive) | 0% (inactive) | 55% | 25% (inactive) | 0% (inactive) | 25% (inactive) | 98 | 0% (inactive)
